According to the supplement of paper PMC10883282:
± gives the standard deviation of the averaged measurements.

System: RD-ES
Assay: relative viability vs DMSO control (72 h) (fraction); higher = more viable cells
Procedure, shortened: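 Sarcoma cell lines in 384-well plates, seeded to reach 80–90% confluence, were given compound after 24 h and kept 72 h at 37 °C, 5% CO2, with 0.1% DMSO vehicle and a 5 µM positive control. Relative viability came from ATPLite as percent growth, averaged over up to triplicate wells. On the rescaled values, 1 equals full and 0 equals none.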

SMILES	relative viability (0.00017 µM)	relative viability (0.00051 µM)	relative viability (0.00152 µM)	relative viability (0.00457 µM)	relative viability (0.01372 µM)	relative viability (0.04115 µM)	relative viability (0.1235 µM)	relative viability (0.3704 µM)	relative viability (1.111 µM)	relative viability (3.333 µM)	relative viability (10 µM)
CC(C)N1CCN(Cc2cnc(-c3cc(-c4cccc5[nH]ccc45)cc4[nH]ncc34)o2)CC1 [Nemiralisib]	1 ± 0.036	1 ± 0.016	0.973 ± 0.028	0.978 ± 0.023	0.987 ± 0.03	1.02 ± 0.042	0.9842 ± 0.004	1.01 ± 0.041	0.984 ± 0.036	0.854 ± 0.016	0.223 ± 0.033
Cc1ccc(NC(=O)c2ccc(CN3CCN(C)CC3)cc2)cc1Nc1nc(-c2cccnc2)cs1 [Masitinib]	0.959 ± 0.018	0.957 ± 0.034	0.9656 ± 0.0031	0.965 ± 0.032	0.948 ± 0.041	0.985 ± 0.011	0.912 ± 0.047	0.86 ± 0.05	0.726 ± 0.043	0.519 ± 0.027	0.183 ± 0.0068
CCc1cc2c(cc1N1CCC(N3CCOCC3)CC1)C(C)(C)c1[nH]c3cc(C#N)ccc3c1C2=O [Alectinib]	0.9941 ± 0.0039	0.997 ± 0.011	0.993 ± 0.016	0.997 ± 0.025	0.988 ± 0.026	1 ± 0.029	1.03 ± 0.039	0.988 ± 0.036	1.04 ± 0.029	1.04 ± 0.014	1.03 ± 0.034
COc1cc2nccc(Oc3ccc(NC(=O)Nc4cc(C)on4)c(Cl)c3)c2cc1OC [Tivozanib]	0.987 ± 0.038	1.01 ± 0.026	0.9944 ± 0.0095	1.02 ± 0.038	1.02 ± 0.022	1.03 ± 0.02	1 ± 0.024	1.02 ± 0.018	0.981 ± 0.031	0.912 ± 0.036	0.768 ± 0.02
